The text below walks through data of patent US20260232699A1, “COMPOSITIONS OF A CANNABINOID AND A KINASE INHIBITOR FOR THE TREATMENT OF CANCER” (SINOVEDA CANADA INC., priority 2023, published 2026).

Series [1] has as its system HepG2 cells. In words: HepG2 cell proliferation assay (XTT). It is filed as cell-based, human. The note with it: IMDM media with 20% FBS and 1% ethanol, read-out: predetermined IC50 concentrations. On the procedure: HepG2 cells were obtained from the American Type Culture Collection (ATCC). Normal hepatocyte pool of cells was acquired from Xenotech. Cryopreserved cells in DMEM containing 5% DMSO were thawed and diluted 10-fold in phenol red free DMEM media containing 10% fetal bovine serum, 100 μg/ml penicillin/streptomycin, supplemented with Glutamax™ and sodium pyruvate. Subsequently, cells were centrifuged at 20 g for 10 minutes. The cells were resuspended in the same media with added Revitacell® to a concentration of […]. Ninety-six well cell culture treated flat bottom plates were seeded with 7.5×10^3 cells in 100 μl and incubated at 37° C., 7.5% CO2, >95% relative humidity for 18 hours to allow cellular adhesion after which media was replaced with like media (DMEM, IMDM, Williams E) containing 1 to 20% FBS and various test compounds (10 μg/ml to 100 ng/ml). After 48 hours (2 doublings of cells), sodium; 2-(2-methoxy-4-nitro-5-sulfonatophenyl)-3-(2-methoxy-4-nitro-5-sulfophenyl)-N-phenyltetrazol-3-ium-5-carboximidate (XTT) (300 μg/ml) was added, and cells incubated for 2 hours. Formazan production was measured at 450 nm on a Varioskan lux spectrophotometer. Non-specific absorption was measured at 660 nm and subtracted from the reference measurement at 450 nm. Experiments were performed in triplicates (n=3). […]
The objectives of this example are to, first, establish the procedure of a two-component interaction study; and second, establish a method of analysis to identify potential interactions among the two components/compounds. […] Following 48 hours of incubation, the IC50 values of various mixtures were obtained and compared with the pure compound's IC50 values and predicted/calculated IC50 values for the various mixtures. […]
Samples from the serial dilutions were analyzed by LC-MS/MS to orthogonally confirm concentrations. […]
To assess potential interactions, the IC50 values for individual cannabinoids in the control lanes were calculated and used to predict and IC50 value for the summation of their individual components.
(Tetrazolium assays rely on reduction of a dye to a coloured formazan, in cell work by metabolically active cells.)

Series [2] relates to HepG2 cells. In words: rtPCR gene expression analysis (TaqMan array card). It counts as cell-based, human. On the procedure: Target cancer gene pathways were analyzed using a custom Taqman® array card exploring 90 unique genes associated with cancer related pathways (Kanehisa, Goto et al. 2010).
Two million HepG2 cells in IMDM media with 20% FBS, and 1% ethanol were seeded in T75 flasks and incubated at 37° C., 7.5% CO2 until 70-80% confluent (approx. […]). […] Untreated cells were included as a negative control. Glyceraldehyde-3-phosphate dehydrogenase (GAPDH) was included as an endogenous control and used for normalization of the data.
Following a 6-hour incubation with the test compounds, the RNA was extracted using Invitrogen's Dynabead mRNA DIRECT kit using the recommended protocol to provide 50 μL of a purified mRNA solution. Fifty μL of RT master mix was mixed into the mRNA solution and the mixture left to react at 37° C. for 60 minutes. Reverse transcriptase inactivation was performed at 95° C. for 5 minutes and the resulting cDNA samples were kept at 4° C. until use. Fifty-five microliters of TaqMan Fast Advance master mix were added to an equal amount of cDNA sample containing 1 μg/100 μl of cDNA, which was loaded into each card reservoir. The cards were centrifuged twice at 1200 RPM for 3 minutes in a Legend XFR centrifuge and the rtPCR reaction was conducted in a QuantStudio7 PCR instrument using the recommended settings with 40 amplification cycles. Data processing was done using ThermoFisher's Connect™ application.
A general note: Quantitative PCR measures a nucleic acid by following its amplification.

The subject of a further series is PDX tumor model (575). In words: In vivo PDX model with drug-loaded nanonails. Details: species or system NCG mice. Particulars: intra-tumoral nanonail, 72 hours. As for the experimental part:
Drug candidates were mixed with FITC-labeled PEG-5000 with a milligram ratio of 2:8 in a suitable solvent and lyophilized to dryness. Samples of the resultant mixtures (10 mg) were loaded into nanonails (Kibur Medical Inc.), a device invented to test multiple samples in a single tumor. The dimension of the cylindrical device is 4 mm×820 μm containing 18 reservoirs 200 μm wide and 250 μm deep. The loaded devices were kept at −80° C. until tumor implant. NCG mice (female, 8-12 weeks old) from Charles River were injected subcutaneously with 100 μL of LIXF-575 cells per mouse. The body weight of the mice and caliper measurements of the tumors were performed every 3 days until the tumors reached 300-400 mm^3 (about 12 weeks). Nine mice were used for intra-tumoral implantation. […]

For series [3] the following is noted: cited from earlier work.
Setting [4] is: Cell Cycle, 6 h at IC50 concentration, relative to negative control.
Setting [5] is: MAP kinase, 6 h at IC50 concentration, relative to negative control.
[6] abbreviates: PI3K pathway, 6 h at IC50 concentration, relative to negative control.

Converted amounts (≈) assume the structure as drawn.

Consider `CCCCCc1cc2c(c(O)c1C(=O)O)-c1cc(C)ccc1C(C)(C)O2` [CBNA, cannabinolic acid], for which the IC50 in the series with HepG2 cells [1] was 20 µM. Moreover, in the series with HepG2 cells [2] (Angiogenesis, 6 h at IC50 concentration, relative to negative control), the “ΔΔCt VEGFA” value is on record as −2.861. Moreover, in the series with HepG2 cells [2] (setting [4]), the “ΔΔCt BAX” value is recorded as −1.062, the “ΔΔCt BECN1” value is listed as −1.7, the “ΔΔCt CCND2” value is −1.539 and the “ΔΔCt CCNE1” value is listed as −2.445. Further, in the series with HepG2 cells [2] (setting [4]), the “ΔΔCt CDK1” value is given as 1.051, the “ΔΔCt CDK2” value is recorded as 1.102 and the “ΔΔCt MNT” value is reported as −1.868. In addition, in the series with HepG2 cells [2] (Drug Resistance, 6 h at IC50 concentration, relative to negative control), the “ΔΔCt MITF” value is recorded as −2.367. Moreover, the “downregulation of the ERBB2/HER2 receptor” value in the series on HepG2 cells [2] (HepG2, 6 hour timeframe) amounted to 8 fold. For the same compound, in the series on HepG2 cells [2] (setting [5]), the “ΔΔCt ERBB2” value is 3.097, the “ΔΔCt MAP1LC3A” value is on record as −1.26, the “ΔΔCt MAP2K2” value was −1.607 and the “ΔΔCt RASA1” value is listed as −1.904. Besides, in the series on HepG2 cells [2] (setting [6]), the “ΔΔCt PIK3CA” value is given as −1.639 and the “ΔΔCt PTEN” value is given as −1.446. Further, the “ΔΔCt SMAD3” value in the series with HepG2 cells [2] (TGF signaling, 6 h at IC50 concentration, relative to negative control) was determined as 2.577. Besides, the “cell proliferation (Ki67) in nanonail implanted 575 PDX tumors” value in the series on PDX tumor model (575) was “not significantly affected”.

For `C=C(C)[C@@H]1CCC(C)=C[C@H]1c1c(O)cc(CCCCC)c(C(=O)O)c1O` [CBDA, cannabidiolic acid], the “times more water soluble compared to CBD” value in series [3] (CBDA versus its decarboxylated counterpart) is recorded as “about 25,000 times”. Further, the water solubility in series [3] was 17.5 mg/mL (≈ 48.8 mM).
